Experimental data published in the NIST ThermoML archive (doi:10.1021/je900596d).
± gives the expanded uncertainty stated by the source.

Conditions: 353.12 K, Fluid (supercritical or subcritical phases), Vibrating tube method

Work on `FC(F)=C(F)C(F)(F)F` [hexafluoropropene] yielded a mass density (251.4 kPa) of 13.222 ± 0.037 kg/m3, a mass density (262.8 kPa) of 13.844 ± 0.037 kg/m3 and a mass density (272.6 kPa) of 14.383 ± 0.038 kg/m3. The mass density (303.9 kPa) was 16.11 ± 0.039 kg/m3, the mass density (313 kPa) was 16.554 ± 0.039 kg/m3 and the mass density (322.1 kPa) was 17.107 ± 0.04 kg/m3. It also gave a mass density (330.9 kPa) of 17.558 ± 0.04 kg/m3, a mass density (340 kPa) of 18.069 ± 0.041 kg/m3 and a mass density (349.1 kPa) of 18.584 ± 0.041 kg/m3. For the same compound, the mass density (358.7 kPa) was 19.177 ± 0.042 kg/m3, the mass density (369.1 kPa) was 19.754 ± 0.042 kg/m3 and the mass density (379.1 kPa) was 20.272 ± 0.043 kg/m3. For the same compound, the mass density (389.1 kPa) was 20.831 ± 0.043 kg/m3, the mass density (398.8 kPa) was 21.42 ± 0.044 kg/m3 and the mass density (402.9 kPa) was 21.597 ± 0.044 kg/m3. The mass density (407.6 kPa) was 21.905 ± 0.044 kg/m3, the mass density (413.1 kPa) was 22.161 ± 0.045 kg/m3 and the mass density (418.2 kPa) was 22.524 ± 0.045 kg/m3. For the same compound, the mass density (427.2 kPa) was 23.019 ± 0.045 kg/m3, the mass density (456.1 kPa) was 24.636 ± 0.047 kg/m3 and the mass density (465.8 kPa) was 25.243 ± 0.048 kg/m3. The mass density (475.9 kPa) was 25.82 ± 0.05 kg/m3, the mass density (485.6 kPa) was 26.38 ± 0.05 kg/m3 and the mass density (494.8 kPa) was 26.85 ± 0.05 kg/m3. It also gave a mass density (499.7 kPa) of 27.22 ± 0.05 kg/m3, a mass density (504.9 kPa) of 27.48 ± 0.05 kg/m3 and a mass density (509.8 kPa) of 27.78 ± 0.05 kg/m3. The mass density (514.2 kPa) was 28 ± 0.05 kg/m3, the mass density (524.1 kPa) was 28.5 ± 0.05 kg/m3 and the mass density (533.5 kPa) was 29.18 ± 0.05 kg/m3. The mass density (538.4 kPa) was 29.45 ± 0.05 kg/m3, the mass density (545.1 kPa) was 30 ± 0.05 kg/m3 and the mass density (567 kPa) was 31.29 ± 0.05 kg/m3. It also gave a mass density (590.2 kPa) of 32.66 ± 0.06 kg/m3, a mass density (613.6 kPa) of 34.14 ± 0.06 kg/m3 and a mass density (636.8 kPa) of 35.5 ± 0.06 kg/m3. It also gave a mass density (660.1 kPa) of 36.92 ± 0.06 kg/m3, a mass density (683.4 kPa) of 38.37 ± 0.06 kg/m3 and a mass density (706.6 kPa) of 39.74 ± 0.06 kg/m3. For the same compound, the mass density (729.7 kPa) was 41.24 ± 0.07 kg/m3, the mass density (752.5 kPa) was 42.62 ± 0.07 kg/m3 and the mass density (775.3 kPa) was 44.06 ± 0.07 kg/m3. The mass density (796.9 kPa) was 45.46 ± 0.07 kg/m3, the mass density (816.7 kPa) was 46.73 ± 0.07 kg/m3 and the mass density (836 kPa) was 47.99 ± 0.07 kg/m3. It also gave a mass density (854.6 kPa) of 49.09 ± 0.07 kg/m3, a mass density (872.3 kPa) of 50.27 ± 0.08 kg/m3 and a mass density (890.1 kPa) of 51.44 ± 0.08 kg/m3. For the same compound, the mass density (907.5 kPa) was 52.57 ± 0.08 kg/m3, the mass density (924.8 kPa) was 53.65 ± 0.08 kg/m3 and the mass density (942.1 kPa) was 54.86 ± 0.08 kg/m3. For the same compound, the mass density (975.7 kPa) was 57.1 ± 0.09 kg/m3, the mass density (992.2 kPa) was 58.29 ± 0.09 kg/m3 and the mass density (1023.7 kPa) was 60.42 ± 0.09 kg/m3. It also gave a mass density (1038.9 kPa) of 61.48 ± 0.09 kg/m3, a mass density (1054.5 kPa) of 62.56 ± 0.09 kg/m3 and a mass density (1070 kPa) of 63.66 ± 0.09 kg/m3. It also gave a mass density (1085.8 kPa) of 64.72 ± 0.09 kg/m3, a mass density (1101.6 kPa) of 65.79 ± 0.1 kg/m3 and a mass density (1116.8 kPa) of 66.89 ± 0.1 kg/m3. It also gave a mass density (1131.5 kPa) of 67.98 ± 0.1 kg/m3, a mass density (1146.8 kPa) of 69 ± 0.1 kg/m3 and a mass density (1161.5 kPa) of 70.08 ± 0.1 kg/m3. For the same compound, the mass density (1205.5 kPa) was 73.34 ± 0.11 kg/m3, the mass density (1219.6 kPa) was 74.41 ± 0.11 kg/m3 and the mass density (1247.6 kPa) was 76.44 ± 0.11 kg/m3. It also gave a mass density (1261.7 kPa) of 77.55 ± 0.11 kg/m3, a mass density (1275.7 kPa) of 78.61 ± 0.11 kg/m3 and a mass density (1303.4 kPa) of 80.62 ± 0.12 kg/m3. For the same compound, the mass density (1330.3 kPa) was 82.8 ± 0.12 kg/m3, the mass density (1356.9 kPa) was 84.86 ± 0.12 kg/m3 and the mass density (1383.3 kPa) was 86.96 ± 0.13 kg/m3. The mass density (1408.9 kPa) was 88.93 ± 0.13 kg/m3, the mass density (1434.2 kPa) was 91.01 ± 0.13 kg/m3 and the mass density (1459.3 kPa) was 93.02 ± 0.14 kg/m3. The mass density (1483.9 kPa) was 95.18 ± 0.14 kg/m3, the mass density (1508 kPa) was 97.12 ± 0.14 kg/m3 and the mass density (1531.3 kPa) was 99.1 ± 0.15 kg/m3. For the same compound, the mass density (1554.6 kPa) was 101.06 ± 0.15 kg/m3, the mass density (1577.1 kPa) was 102.97 ± 0.15 kg/m3 and the mass density (1599.7 kPa) was 105.06 ± 0.16 kg/m3. For the same compound, the mass density (1621.5 kPa) was 106.97 ± 0.16 kg/m3, the mass density (1643.3 kPa) was 108.91 ± 0.16 kg/m3 and the mass density (1664 kPa) was 110.78 ± 0.17 kg/m3. For the same compound, the mass density (1684.8 kPa) was 112.72 ± 0.17 kg/m3, the mass density (1705.1 kPa) was 114.65 ± 0.17 kg/m3 and the mass density (1725.3 kPa) was 116.53 ± 0.17 kg/m3. It also gave a mass density (1745.4 kPa) of 118.38 ± 0.18 kg/m3, a mass density (1764.4 kPa) of 120.27 ± 0.18 kg/m3 and a mass density (1783 kPa) of 122.06 ± 0.18 kg/m3. The mass density (1801.8 kPa) was 123.93 ± 0.19 kg/m3, the mass density (1819.8 kPa) was 125.68 ± 0.19 kg/m3 and the mass density (1837.5 kPa) was 127.52 ± 0.19 kg/m3. For the same compound, the mass density (1854.8 kPa) was 129.26 ± 0.2 kg/m3, the mass density (1871.7 kPa) was 131.01 ± 0.2 kg/m3 and the mass density (1887.6 kPa) was 132.69 ± 0.21 kg/m3. It also gave a mass density (1901.9 kPa) of 134.3 ± 0.21 kg/m3, a mass density (1921.8 kPa) of 136.34 ± 0.21 kg/m3 and a mass density (1936 kPa) of 137.88 ± 0.21 kg/m3. The mass density (1955.9 kPa) was 140.04 ± 0.22 kg/m3, the mass density (1970.5 kPa) was 141.59 ± 0.22 kg/m3 and the mass density (1990.1 kPa) was 143.83 ± 0.23 kg/m3. It also gave a mass density (2027.5 kPa) of 148.08 ± 0.23 kg/m3, a mass density (2047 kPa) of 150.4 ± 0.24 kg/m3 and a mass density (2061 kPa) of 152.1 ± 0.25 kg/m3. For the same compound, the mass density (2079.9 kPa) was 154.31 ± 0.25 kg/m3, the mass density (2102.5 kPa) was 157.14 ± 0.25 kg/m3 and the mass density (2119.5 kPa) was 159.22 ± 0.26 kg/m3. The mass density (2136.1 kPa) was 161.36 ± 0.27 kg/m3, the mass density (2152.9 kPa) was 163.58 ± 0.27 kg/m3 and the mass density (2175.2 kPa) was 166.51 ± 0.29 kg/m3. For the same compound, the mass density (2194.7 kPa) was 169.1 ± 0.29 kg/m3, the mass density (2217.5 kPa) was 172.27 ± 0.3 kg/m3 and the mass density (2237.1 kPa) was 175.05 ± 0.31 kg/m3. The mass density (2258.4 kPa) was 178.08 ± 0.32 kg/m3, the mass density (2276.1 kPa) was 180.72 ± 0.31 kg/m3 and the mass density (2293.5 kPa) was 183.23 ± 0.32 kg/m3. The mass density (2310.9 kPa) was 185.85 ± 0.34 kg/m3, the mass density (2329.3 kPa) was 188.76 ± 0.36 kg/m3 and the mass density (2343.8 kPa) was 191.1 ± 0.34 kg/m3. It also gave a mass density (2361 kPa) of 193.93 ± 0.35 kg/m3, a mass density (2378.6 kPa) of 196.85 ± 0.37 kg/m3 and a mass density (2393.5 kPa) of 199.32 ± 0.38 kg/m3. It also gave a mass density (2410.2 kPa) of 202.31 ± 0.42 kg/m3, a mass density (2428.4 kPa) of 205.51 ± 0.43 kg/m3 and a mass density (2442.4 kPa) of 208.12 ± 0.4 kg/m3. The mass density (2463 kPa) was 211.98 ± 0.44 kg/m3, the mass density (2479.5 kPa) was 215.15 ± 0.46 kg/m3 and the mass density (2502.3 kPa) was 219.78 ± 0.55 kg/m3. For the same compound, the mass density (2520.3 kPa) was 223.6 ± 0.48 kg/m3, the mass density (2540.4 kPa) was 228.04 ± 0.47 kg/m3 and the mass density (2560 kPa) was 232.39 ± 0.5 kg/m3. The mass density (2575.6 kPa) was 236.13 ± 0.53 kg/m3.
